According to ChEMBL document CHEMBL4014318, “Rationalized Computer-Aided Design of Matrix-Metalloprotease-Selective Prodrugs” (J Med Chem, 2017):
One block for each molecule: values may come before it. Where a SMILES comes first, the peptide text is derived from it. [ ]: non-standard residue; d: D form. The star is where a group is joined. ξ: configuration not given here. X1 = COc1cccc2c1C(=O)c1c(O)c3c(c(O)c1C2=O)C[C@](O)(C(=O)CO)C[C@H]3O[C@@H]1C[C@@H](N*)[C@H](O)[C@@H](C)O1; X2 = COc1cccc2c1C(=O)c1c(O)c3c(c(O)c1C2=O)C[C@@](O)(C(=O)CO)C[C@@H]3O[C@H]1C[C@H](N*)[C@@H](O)[C@H](C)O1; Dnp = O=[N+]([O-])c1ccc(*)c([N+](=O)[O-])c1; ξhPhe = NC(CCc1ccccc1)C(=O)O; ξCha = NC(CC1CCCCC1)C(=O)O; Cbz = O=C(OCc1ccccc1)*; Bn = c1ccc(C*)cc1

Legend:
[1] = Retention time of compound by LC-MS analysis
[2] = target: T1, Matrix metalloproteinase-14 (Homo sapiens, UniProt P50281); assay: Prodrug activation assessed as recombinant human MMP14-mediated Cbz-Glu-Pro-Leu-Gly metabolite at 10 uM after 12 hrs by LC-MS analysis; type: ADME
[3] = target: T2, Matrix metalloproteinase-9 (Homo sapiens, UniProt P14780); assay: Prodrug activation assessed as recombinant human MMP9-mediated Ser(O-benzyl)-Tyr-Leu-doxorubicin formation at 10 uM after 12 hrs by LC-MS analysis
T2 sequence (P14780 whole entry): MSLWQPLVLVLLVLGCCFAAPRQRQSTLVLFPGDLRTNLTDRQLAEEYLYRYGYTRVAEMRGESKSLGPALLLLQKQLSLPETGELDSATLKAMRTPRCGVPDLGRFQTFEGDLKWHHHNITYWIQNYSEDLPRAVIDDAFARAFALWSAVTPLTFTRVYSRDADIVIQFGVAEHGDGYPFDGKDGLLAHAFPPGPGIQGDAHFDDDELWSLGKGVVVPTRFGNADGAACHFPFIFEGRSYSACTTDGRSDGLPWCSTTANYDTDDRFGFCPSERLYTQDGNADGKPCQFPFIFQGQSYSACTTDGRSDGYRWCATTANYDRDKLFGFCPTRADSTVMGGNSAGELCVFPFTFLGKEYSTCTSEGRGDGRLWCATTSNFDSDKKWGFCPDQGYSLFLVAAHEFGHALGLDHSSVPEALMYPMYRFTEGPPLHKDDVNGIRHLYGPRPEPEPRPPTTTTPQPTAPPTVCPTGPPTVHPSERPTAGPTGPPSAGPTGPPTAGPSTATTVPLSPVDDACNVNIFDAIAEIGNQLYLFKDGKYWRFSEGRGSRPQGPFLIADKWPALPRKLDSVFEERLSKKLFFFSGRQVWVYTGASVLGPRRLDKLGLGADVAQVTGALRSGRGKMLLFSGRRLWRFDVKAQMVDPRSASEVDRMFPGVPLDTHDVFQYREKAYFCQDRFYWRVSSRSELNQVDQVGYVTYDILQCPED

[4] = target: T1, Matrix metalloproteinase-14; assay: Prodrug activation assessed as recombinant human MMP14-mediated Ser(O-benzyl)-Tyr-Leu-doxorubicin formation at 10 uM after 12 hrs by LC-MS analysis
[5] = target: T3, 72 kDa type IV collagenase (Homo sapiens, UniProt P08253); assay: Prodrug activation assessed as recombinant human MMP2-mediated Cbz-Glu-Pro-Leu-Gly formation at 10 uM after 12 hrs by LC-MS analysis
T3 sequence (P08253 whole entry): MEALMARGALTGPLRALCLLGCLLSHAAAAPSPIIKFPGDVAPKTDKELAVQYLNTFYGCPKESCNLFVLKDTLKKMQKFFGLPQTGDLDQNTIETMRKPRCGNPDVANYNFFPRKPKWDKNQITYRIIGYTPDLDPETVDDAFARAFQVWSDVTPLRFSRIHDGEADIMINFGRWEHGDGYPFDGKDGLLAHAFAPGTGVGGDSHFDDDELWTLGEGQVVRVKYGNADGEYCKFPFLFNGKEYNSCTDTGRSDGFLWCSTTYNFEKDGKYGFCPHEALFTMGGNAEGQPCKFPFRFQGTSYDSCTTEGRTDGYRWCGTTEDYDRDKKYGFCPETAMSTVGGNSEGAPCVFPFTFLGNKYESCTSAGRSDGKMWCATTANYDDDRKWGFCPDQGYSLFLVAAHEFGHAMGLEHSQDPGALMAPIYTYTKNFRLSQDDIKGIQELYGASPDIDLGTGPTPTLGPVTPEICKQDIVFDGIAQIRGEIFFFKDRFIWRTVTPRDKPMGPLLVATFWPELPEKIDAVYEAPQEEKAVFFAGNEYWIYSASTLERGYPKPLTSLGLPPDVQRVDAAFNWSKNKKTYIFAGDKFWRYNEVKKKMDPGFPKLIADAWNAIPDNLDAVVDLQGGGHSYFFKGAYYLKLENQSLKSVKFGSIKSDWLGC

[6] = target: T2, Matrix metalloproteinase-9; assay: Prodrug activation assessed as recombinant human MMP9-mediated Cbz-Glu-Pro-Leu-Gly formation at 10 uM after 12 hrs by LC-MS analysis
[7] = target: T3, 72 kDa type IV collagenase; assay: Prodrug activation assessed as recombinant human MMP2-mediated Ser(O-benzyl)-Tyr-Leu-doxorubicin formation at 10 uM after 12 hrs by LC-MS analysis
[8] = Prodrug activation in Balb/c immunodeficient nude mouse xenografted with human HT1080 cells assessed as half life for prodrug in tumor homogenates after 60 mins by LC-MS analysis; type: tissue-based, Neoplasm; details: tissue homogenate, 1 h
Kidney = assay: Prodrug activation in Balb/c immunodeficient nude mouse xenografted with human HT1080 cells assessed as half life for prodrug in kidney after 60 mins by LC-MS analysis; type: tissue-based; details: 1 h
Plasma = assay: Prodrug activation in Balb/c immunodeficient nude mouse xenografted with human HT1080 cells assessed as half life for prodrug in plasma after 60 mins by LC-MS analysis; type: cell-free; details: 1 h
[9] = target: T2, Matrix metalloproteinase-9; assay: Prodrug activation assessed as recombinant human MMP9-mediated compound cleavage at 10 uM after 12 hrs by LC-MS analysis
[10] = target: T1, Matrix metalloproteinase-14; assay: Prodrug activation assessed as recombinant human MMP14-mediated compound cleavage at 10 uM after 12 hrs by LC-MS analysis
U-87 MG [11] = assay: Cytotoxicity against human U87MG cells assessed as reduction in cell survival after 96 hrs by MTT assay; type: functional, cell-based, U-87MG ATCC
[12] = target: T3, 72 kDa type IV collagenase; assay: Prodrug activation assessed as recombinant human MMP2-mediated Cbz-Gly-Pro-Ile-Gln-Glu-Hof formation at 10 uM after 12 hrs by LC-MS analysis
U-87 MG [13] = assay: Cytotoxicity against human U87MG cells treated with MJ02 assessed as reduction in cell survival after 96 hrs in presence of MMP inhibitor GM6001 by MTT assay; type: functional, cell-based, U-87MG ATCC
Liver = assay: Prodrug activation in Balb/c immunodeficient nude mouse xenografted with human HT1080 cells assessed as half life for prodrug in liver after 60 mins by LC-MS analysis; type: tissue-based; details: 1 h
[14] = target: T3, 72 kDa type IV collagenase; assay: Prodrug activation assessed as recombinant human MMP2-mediated Leu-doxorubicin formation at 10 uM after 12 hrs by LC-MS analysis
[15] = Retention time of compound by RP-HPLC analysis
U-87 MG [16] = assay: Cytotoxicity against human U87MG cells treated with MJ02 assessed as reduction in cell survival after 96 hrs by MTT assay; type: functional, cell-based, U-87MG ATCC

SMILES: CNc1ccccc1C(=O)NCCCC[C@H](NC(=O)[C@H](C)NC(=O)[C@H](Cc1c[nH]cn1)NC(=O)[C@H](N)CSC)C(N)=O
Retention time [1]: 2.47 min

SMILES: COc1cccc2c1C(=O)c1c(O)c3c(c(O)c1C2=O)C[C@@](O)(C(=O)CO)C[C@@H]3O[C@H]1C[C@H](NC(=O)[C@H](CC(C)C)NC(=O)[C@H](Cc2ccc(O)cc2)NC(=O)[C@@H](N)COCc2ccccc2)[C@@H](O)[C@H](C)O1
Retention time [1]: 3.23 min

SMILES: CC(C)C[C@H](NC(=O)[C@@H]1CCCN1C(=O)[C@H](CCC(=O)O)NC(=O)OCc1ccccc1)C(=O)NCC(=O)O (Cbz-EPLG-OH)
Retention time [1]: 2.87 min

Drug metabolism [2]: Metabolite_Detected | Drug metabolism [3]: Metabolite_Detected | Drug metabolism [4]: Metabolite_Detected | Drug metabolism [5]: Metabolite_Detected | Drug metabolism [6]: Metabolite_Detected | Drug metabolism [7]: Metabolite_Detected
SMILES: COc1cccc2c1C(=O)c1c(O)c3c(c(O)c1C2=O)C[C@@](O)(C(=O)CO)C[C@@H]3O[C@H]1C[C@H](NC(=O)[C@H](CC(C)C)NC(=O)[C@H](Cc2ccc(O)cc2)NC(=O)[C@H](COCc2ccccc2)NC(=O)CNC(=O)[C@H](CC(C)C)NC(=O)[C@@H]2CCCN2C(=O)[C@H](CCC(=O)O)NC(=O)OCc2ccccc2)[C@@H](O)[C@H](C)O1 (Cbz-EPLGS(Bn)YL-X2)
Retention time [1]: 3.63 min

SMILES: CC[C@H](C)[C@H](NC(=O)[C@@H]1CCCN1C(=O)CNC(=O)OCc1ccccc1)C(=O)N[C@@H](CCC(N)=O)C(=O)N[C@@H](CCC(=O)O)C(=O)NC(CCc1ccccc1)C(=O)O (stereo partly specified) (Cbz-GPIQE[ξhPhe]-OH)
Retention time [1]: 2.83 min

t1/2 [8]: >= 8.8 min | t1/2 (Kidney): >= 38.1 min | t1/2 (Plasma): > 1.5 h | Drug metabolism [9]: Metabolite_Notdetected | Drug metabolism [10]: Metabolite_Notdetected | Drug metabolism [12]: Metabolite_Detected | t1/2 (Liver): >= 17 min | Drug metabolism [14]: Metabolite_Detected
SMILES: CC[C@H](C)[C@H](NC(=O)[C@@H]1CCCN1C(=O)CNC(=O)OCc1ccccc1)C(=O)N[C@@H](CCC(N)=O)C(=O)N[C@@H](CCC(=O)O)C(=O)NC(CCc1ccccc1)C(=O)N[C@@H](CC(C)C)C(=O)N[C@@H]1C[C@@H](O[C@@H]2C[C@@](O)(C(=O)CO)Cc3c(O)c4c(c(O)c32)C(=O)c2c(OC)cccc2C4=O)O[C@H](C)[C@H]1O (stereo partly drawn) (Cbz-GPIQE[ξhPhe]L-X1)
IC50 (U-87 MG [11]): 5000 nM | IC50 (U-87 MG [13]): > 100000 nM | Retention time [15]: 3.58 min

SMILES: O=C(O)CNC(=O)C(CC1CCCCC1)NC(=O)[C@@H]1CCCN1c1ccc([N+](=O)[O-])cc1[N+](=O)[O-] (stereo partly drawn) (Dnp-Pro-[ξCha]-Gly-OH)
Retention time [1]: 2.3 min

SMILES: COc1cccc2c1C(=O)c1c(O)c3c(c(O)c1C2=O)C[C@@](O)(C(=O)CO)C[C@@H]3O[C@H]1C[C@H](N)[C@H](O)[C@H](C)O1 [DOXORUBICIN]
IC50 (U-87 MG [11]): 300 nM

SMILES: COc1cccc2c1C(=O)c1c(O)c3c(c(O)c1C2=O)C[C@@](O)(C(=O)CO)C[C@@H]3O[C@H]1C[C@H](NC(=O)[C@@H](N)CC(C)C)[C@H](O)[C@H](C)O1 [LEURUBICIN]
IC50 (U-87 MG [16]): 600 nM | Retention time [1]: 2.08 min
